The first test deals with Lox-IMVI melanoma cell line. Description: Lox-IMVI anti-proliferative assay (growth inhibition, Cell Titer-Glo). In kind it is cell-based, human. The conditions noted are these: Homo sapiens; IC50 activity level in the cell-based Lox-IMVI anti-proliferative assay; read-out: Activity. In a few lines:
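First, compound was dispensed as a 10-point 3-fold series (0.5 nM–10 μM, duplicate). Then cells in RPMI + 10% FBS were added and grown 72 h at 37 °C with 0.2% DMSO. Finally, ATP luminescence was read and IC50 calculated versus DMSO control.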
Consider `NC(=O)[C@H]1CC[C@@H](n2c(Nc3c(F)cc(Cl)cc3Cl)nc3cnc(N[C@@H]4CCCOC4)nc32)CC1` [Example 190, (1S,4s)-4-(8-(2,4-dichloro-6-fluorophenylamino)-2-((R)-tetrahydro-2H-pyran-3-ylamino)-9H-purin-9-yl)cyclohexanecarboxamide], for which the IC50 is above 1 µM.

Turning to `CC[C@H](C)Nc1ncc2nc(Nc3c(F)cc(Cl)cc3Cl)n([C@H]3CC[C@@H](C(N)=O)CC3)c2n1` [Example 339, (1R,4s)-4-(2-(sec-butylamino)-8-(2,4-dichloro-6-fluorophenylamino)-9H-purin-9-yl)cyclohexanecarboxamide], the IC50 was in the range of 0.5 to 1 µM.

In the case of `C[C@@H](CO)Nc1ncc2nc(Nc3c(F)cc(C#N)cc3Cl)n([C@H]3CC[C@@H](C(N)=O)CC3)c2n1` [Example 395, (1R,4s)-4-(8-(2-chloro-4-cyano-6-fluorophenylamino)-2-((S)-1-hydroxypropan-2-ylamino)-9H-purin-9-yl)cyclohexanecarboxamide], the IC50 is above 1 µM.

For the molecule `NC(=O)[C@H]1CC[C@@H](n2c(Nc3c(F)cc(Cl)cc3Cl)nc3cnc(N[C@@H]4CC[C@@H](O)C4)nc32)CC1` [Example 213, (1S,4s)-4-(8-(2,4-dichloro-6-fluorophenylamino)-2-((1R,3R)-3-hydroxycyclopentylamino)-9H-purin-9-yl)cyclohexanecarboxamide], the IC50 lay within 0.25 to 0.5 µM.

Turning to `CC(C)Nc1ncc2nc(Nc3c(F)cc(F)cc3Cl)n([C@H]3CC[C@@H](C(N)=O)CC3)c2n1` [Example 125, (1s,4s)-4-(8-(2-chloro-4,6-difluorophenylamino)-2-(isopropylamino)-9H-purin-9-yl)cyclohexanecarboxamide], the IC50 was 0.5 to 1 µM.

As for `CC1(C)CC[C@@H](Nc2ncc3nc(Nc4c(Cl)cc(F)cc4Cl)n([C@H]4CC[C@@H](C(N)=O)CC4)c3n2)C[C@H]1O` [Example 388, (1S,4s)-4-(8-(2,6-dichloro-4-fluorophenylamino)-2-((1R,3R)-3-hydroxy-4,4-dimethylcyclohexylamino)-9H-purin-9-yl)cyclohexanecarboxamide], the IC50 was above 1 µM.

`N#Cc1cc(Cl)c(Nc2nc3cnc(NC4CCCC4)nc3n2[C@H]2CC[C@@H](C(N)=O)CC2)c(Cl)c1` [Example 367, (1s,4s)-4-(2-(cyclopentylamino)-8-(2,6-dichloro-4-cyanophenylamino)-9H-purin-9-yl)cyclohexanecarboxamide]: the IC50 is below 0.25 µM.

Turning to `CC(C)Nc1ncc2nc(Nc3ccc(F)cc3Cl)n([C@H]3CC[C@@H](C(N)=O)CC3)c2n1` [Example 97, (1s,4s)-4-(8-(2-chloro-4-fluorophenylamino)-2-(isopropylamino)-9H-purin-9-yl)cyclohexanecarboxamide], the IC50 was above 1 µM.

Consider `NC(=O)[C@H]1CC[C@@H](n2c(Nc3c(Cl)cccc3Cl)nc3cnc(N[C@H]4CC[C@H](O)C4)nc32)CC1` [Example 327, (1R,4s)-4-(8-(2,6-dichlorophenylamino)-2-((1S,3S)-3-hydroxycyclopentylamino)-9H-purin-9-yl)cyclohexanecarboxamide], for which the IC50 is 0.5 to 1 µM.

For the molecule `C[C@@H](CO)Nc1ncc2nc(Nc3c(Cl)cc(F)cc3Cl)n([C@H]3CC[C@@H](C(N)=O)CC3)c2n1` [Example 166, (1R,4s)-4-(8-(2,6-dichloro-4-fluorophenylamino)-2-((S)-1-hydroxypropan-2-ylamino)-9H-purin-9-yl)cyclohexanecarboxamide], the IC50 fell in the range of 0.5 to 1 µM.

As for `CC(C)(C)OC(=O)N1CCC[C@@H](Nc2ncc3nc(Nc4c(F)cccc4F)n([C@H]4CC[C@@H](C(N)=O)CC4)c3n2)C1` [Example 159, (R)-tert-butyl 3-(9-((1s,4S)-4-carbamoylcyclohexyl)-8-(2,6-difluorophenylamino)-9H-purin-2-ylamino)piperidine-1-carboxylate], the IC50 is above 1 µM.

Consider `CC(C)Nc1ncc2nc(Nc3c(F)cc(Cl)cc3Cl)n([C@H]3CC[C@@H](C(N)=O)CC3)c2n1` [Example 99, (1s,4s)-4-(8-(2,4-dichloro-6-fluorophenylamino)-2-(isopropylamino)-9H-purin-9-yl)cyclohexanecarboxamide], for which the IC50 was 0.25 to 0.5 µM.

`CC(C)Nc1ncc2nc(Nc3c(Cl)cccc3Cl)n([C@H]3CC[C@@H](C(N)=O)CC3)c2n1` [Example 52]: the IC50 is above 1 µM.

The test is the same for the next values; noted with them: Homo sapiens; Lox-IMVI anti-proliferative assay, IC50 activity level; read-out: Activity.
With `NC(=O)[C@H]1CC[C@@H](n2c(Nc3c(Cl)cc(C(F)(F)F)cc3Cl)nc3cnc(NC4CCCOCC4)nc32)CC1` (stereo partly shown) [Example 544, (1s,4s)-4-(8-(2,6-dichloro-4-(trifluoromethyl)phenylamino)-2-(oxepan-4-ylamino)-9H-purin-9-yl)cyclohexanecarboxamide], the IC50 was above 1 µM.

On to `C[C@]1(C(N)=O)CC[C@@H](n2c(Nc3c(F)cc(C#N)cc3Cl)nc3cnc(NC4CC(F)(F)C4)nc32)CC1` [Example 583, (1s,4s)-4-(8-(2-chloro-4-cyano-6-fluorophenylamino)-2-(3,3-difluorocyclobutylamino)-9H-purin-9-yl)-1-methylcyclohexanecarboxamide], for which the IC50 is below 0.25 µM.

`C[C@H]1COCC[C@@H]1Nc1ncc2nc(Nc3c(F)cc(Cl)cc3Cl)n([C@H]3CC[C@@H](C(N)=O)CC3)c2n1` [Example 504, (1R,4s)-4-(8-(2,4-dichloro-6-fluorophenylamino)-2-((3R,4S)-3-methyltetrahydro-2H-pyran-4-ylamino)-9H-purin-9-yl)cyclohexanecarboxamide]: the IC50 lay within 0.5 to 1 µM.

With `C[C@]1(C(N)=O)CC[C@H](n2c(Nc3c(F)cc(Cl)cc3Cl)nc3cnc(NC4CCC(F)(F)CC4)nc32)CC1` [Example 478, (1r,4r)-4-(8-(2,4-dichloro-6-fluorophenylamino)-2-(4,4-difluorocyclohexylamino)-9H-purin-9-yl)-1-methylcyclohexanecarboxamide], the IC50 was above 1 µM.

Regarding `C[C@]1(C(N)=O)CC[C@@H](n2c(Nc3c(F)cc(Cl)cc3F)nc3cnc(NC4CCOCC4)nc32)CC1` [Example 521, (1s,4s)-4-(8-(4-chloro-2,6-difluorophenylamino)-2-(tetrahydro-2H-pyran-4-ylamino)-9H-purin-9-yl)-1-methylcyclohexanecarboxamide], the IC50 is below 0.25 µM.

`C[C@@H](CO)Nc1ncc2nc(Nc3c(Cl)cc(C#N)cc3Cl)n([C@H]3CC[C@@](C)(C(N)=O)CC3)c2n1` [Example 553, (1R,4s)-4-(8-(2,6-dichloro-4-cyanophenylamino)-2-((S)-1-hydroxypropan-2-ylamino)-9H-purin-9-yl)-1-methylcyclohexanecarboxamide]: the IC50 was below 0.25 µM.

For the molecule `CC(C)Nc1ncc2nc(Nc3c(F)cc(C#N)cc3Cl)n([C@H]3CC[C@@H](C(N)=O)CC3)c2n1` [Example 430, (1s,4s)-4-(8-(2-chloro-4-cyano-6-fluorophenylamino)-2-(isopropylamino)-9H-purin-9-yl)cyclohexanecarboxamide], the IC50 lay in the range of 0.5 to 1 µM.

Consider `CC(C)(CO)CNc1ncc2nc(Nc3c(Cl)cc(C#N)cc3Cl)n([C@H]3CC[C@@H](C(N)=O)CC3)c2n1` [Example 482, (1s,4s)-4-(8-(2,6-dichloro-4-cyanophenylamino)-2-(3-hydroxy-2,2-dimethylpropylamino)-9H-purin-9-yl)cyclohexanecarboxamide], for which the IC50 is above 1 µM.

Turning to `NC(=O)[C@H]1CC[C@@H](n2c(Nc3c(Cl)cc(F)cc3Cl)nc3cnc(N[C@@H]4CCC[C@@H](O)C4)nc32)CC1` [Example 423, (1S,4s)-4-(8-(2,6-dichloro-4-fluorophenylamino)-2-((1R,3R)-3-hydroxycyclohexylamino)-9H-purin-9-yl)cyclohexanecarboxamide], the IC50 lay within 0.5 to 1 µM.

Still in this test, the particulars now being: Homo sapiens; Lox-IMVI melanoma cell line, anti-proliferative assay; read-out: Activity (IC50 activity level).
As for `N#Cc1cc(Cl)c(Nc2nc3cnc(N[C@H]4CCOC[C@H]4F)nc3n2[C@H]2CC[C@@H](C(N)=O)CC2)c(Cl)c1` [Example 765, (1R,4s)-4-(8-(2,6-dichloro-4-cyanophenylamino)-2-((3S,4S)-3-fluorotetrahydro-2H-pyran-4-ylamino)-9H-purin-9-yl)cyclohexanecarboxamide], the IC50 was below 0.25 µM.

On to `NC(=O)[C@H]1CC[C@@H](n2c(Nc3c(Cl)cc(Cl)cc3Cl)nc3cnc(NC4CCC(c5ncno5)CC4)nc32)CC1` (stereo partly shown) [Example 678, (1s,4s)-4-(2-(4-(1,2,4-oxadiazol-5-yl)cyclohexylamino)-8-(2,4,6-trichlorophenylamino)-9H-purin-9-yl)cyclohexanecarboxamide], for which the IC50 is above 1 µM.

`C[C@]1(C(N)=O)CC[C@@H](n2c(Nc3c(F)cc(Cl)cc3F)nc3cnc(N[C@@H]4CCC[C@@H](O)C4)nc32)CC1` [Example 622, (1S,4s)-4-(8-(4-chloro-2,6-difluorophenylamino)-2-((1R,3R)-3-hydroxycyclohexylamino)-9H-purin-9-yl)-1-methylcyclohexanecarboxamide]: the IC50 was in the range of 0.5 to 1 µM.

For the molecule `NC(=O)[C@H]1CC[C@@H](n2c(Nc3c(F)cc(Cl)cc3Cl)nc3cnc(NC4CCC(N5C(=O)CCC5=O)CC4)nc32)CC1` (stereo partly shown) [Example 667, (1s,4s)-4-(8-(2,4-dichloro-6-fluorophenylamino)-2-(4-(2,5-dioxopyrrolidin-1-yl)cyclohexylamino)-9H-purin-9-yl)cyclohexanecarboxamide], the IC50 is above 1 µM.

As to `C[C@]1(C(N)=O)CC[C@@H](n2c(Nc3c(Cl)cc(F)cc3Cl)nc3cnc(N[C@@H]4CC[C@@H](O)C4)nc32)CC1` [Example 638, (1S,4s)-4-(8-(2,6-dichloro-4-fluorophenylamino)-2-((1R,3R)-3-hydroxycyclopentylamino)-9H-purin-9-yl)-1-methylcyclohexanecarboxamide], the IC50 was below 0.25 µM.

Turning to `CS(=O)(=O)C1CC(Nc2ncc3nc(Nc4c(Cl)cc(C(F)(F)F)cc4Cl)n([C@H]4CC[C@@H](C(N)=O)CC4)c3n2)C1` (stereo partly shown) [Example 735, (1s,4s)-4-(8-(2,6-dichloro-4-(trifluoromethyl)phenylamino)-2-(3-(methylsulfonyl)cyclobutylamino)-9H-purin-9-yl)cyclohexanecarboxamide], the IC50 is above 1 µM.
